Measured values: ChEMBL document CHEMBL1138949, “Bromine- and iodine-substituted 16alpha,17alpha-dioxolane progestins for breast tumor imaging and radiotherapy: synthesis and receptor binding affinity” (J Med Chem, 2006)

What was measured:
[1] = target: T1, Progesterone receptor (Homo sapiens) (UniProt P06401); test: Inhibition of [3H]R5020 binding to human recombinant progesterone receptor relative to R5020
T1 sequence (whole entry): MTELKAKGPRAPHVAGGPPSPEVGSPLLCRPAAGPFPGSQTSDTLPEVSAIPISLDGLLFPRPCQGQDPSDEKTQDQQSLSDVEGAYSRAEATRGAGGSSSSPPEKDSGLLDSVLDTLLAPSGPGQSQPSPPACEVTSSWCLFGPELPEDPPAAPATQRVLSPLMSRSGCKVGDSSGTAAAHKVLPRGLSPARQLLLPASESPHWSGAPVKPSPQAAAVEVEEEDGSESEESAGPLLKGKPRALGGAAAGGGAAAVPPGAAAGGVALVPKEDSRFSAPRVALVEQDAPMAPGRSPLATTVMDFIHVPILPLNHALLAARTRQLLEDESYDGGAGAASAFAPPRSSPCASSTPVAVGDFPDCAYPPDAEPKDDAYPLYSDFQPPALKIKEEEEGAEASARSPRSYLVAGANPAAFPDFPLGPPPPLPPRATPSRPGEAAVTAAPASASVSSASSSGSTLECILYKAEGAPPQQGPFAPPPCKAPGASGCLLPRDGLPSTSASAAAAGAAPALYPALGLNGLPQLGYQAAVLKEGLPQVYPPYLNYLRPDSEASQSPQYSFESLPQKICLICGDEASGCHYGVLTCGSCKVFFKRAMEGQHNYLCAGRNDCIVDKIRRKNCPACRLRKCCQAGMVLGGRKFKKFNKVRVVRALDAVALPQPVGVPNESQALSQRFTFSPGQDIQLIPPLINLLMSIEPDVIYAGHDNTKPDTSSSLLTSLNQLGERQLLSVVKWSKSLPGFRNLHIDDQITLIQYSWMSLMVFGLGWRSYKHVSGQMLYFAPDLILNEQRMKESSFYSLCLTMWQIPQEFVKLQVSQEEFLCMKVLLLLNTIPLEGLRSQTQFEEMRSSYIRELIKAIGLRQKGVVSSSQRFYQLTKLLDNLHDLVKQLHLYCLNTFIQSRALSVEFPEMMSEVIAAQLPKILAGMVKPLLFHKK

[2] = target: T2, Progesterone receptor (Rattus norvegicus) (UniProt Q63449); test: Inhibition of [3H]R5020 binding to rat uterine progesterone receptor relative to R5020
T2 sequence (whole entry): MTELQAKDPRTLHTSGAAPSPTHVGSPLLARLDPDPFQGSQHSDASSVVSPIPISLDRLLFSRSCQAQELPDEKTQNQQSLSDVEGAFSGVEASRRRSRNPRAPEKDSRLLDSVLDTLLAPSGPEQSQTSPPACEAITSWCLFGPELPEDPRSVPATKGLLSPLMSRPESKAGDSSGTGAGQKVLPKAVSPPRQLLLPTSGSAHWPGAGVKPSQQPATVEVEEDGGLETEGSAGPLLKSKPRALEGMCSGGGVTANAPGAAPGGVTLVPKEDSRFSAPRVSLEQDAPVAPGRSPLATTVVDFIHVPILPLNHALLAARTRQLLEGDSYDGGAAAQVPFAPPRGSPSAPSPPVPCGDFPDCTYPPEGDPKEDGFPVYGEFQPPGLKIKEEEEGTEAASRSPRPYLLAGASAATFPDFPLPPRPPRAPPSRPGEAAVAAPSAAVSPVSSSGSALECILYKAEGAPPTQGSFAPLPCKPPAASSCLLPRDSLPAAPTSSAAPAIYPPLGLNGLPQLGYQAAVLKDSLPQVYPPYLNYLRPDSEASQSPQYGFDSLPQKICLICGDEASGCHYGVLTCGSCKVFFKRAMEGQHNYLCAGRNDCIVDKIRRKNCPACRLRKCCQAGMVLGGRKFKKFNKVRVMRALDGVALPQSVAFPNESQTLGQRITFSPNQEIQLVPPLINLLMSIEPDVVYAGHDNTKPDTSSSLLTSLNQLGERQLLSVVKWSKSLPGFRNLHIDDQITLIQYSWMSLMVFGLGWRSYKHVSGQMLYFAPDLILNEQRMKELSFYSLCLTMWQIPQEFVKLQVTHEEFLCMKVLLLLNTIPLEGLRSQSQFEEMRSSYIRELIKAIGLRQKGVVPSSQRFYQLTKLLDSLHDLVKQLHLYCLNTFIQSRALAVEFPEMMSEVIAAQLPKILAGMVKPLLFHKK

Row | relative binding affinity (RBA) [1] | relative binding affinity (RBA) [2] | Compound
1 | 9 |  | C[C@]12CC[C@H]3[C@@H](CCC4=CC(=O)CC[C@@H]43)[C@@H]1C[C@H]1O[C@H](c3ccc(I)o3)O[C@]12C(=O)CF
2 | 23 |  | C[C@]12CC[C@H]3[C@@H](CCC4=CC(=O)CC[C@@H]43)[C@@H]1C[C@H]1O[C@@H](c3ccc(I)o3)O[C@]12C(=O)CO
3 | 65 |  | C[C@]12CC[C@H]3[C@@H](CCC4=CC(=O)CC[C@@H]43)[C@@H]1C[C@H]1O[C@@H](c3ccc(Br)o3)O[C@]12C(=O)CO
4 | 24 |  | C[C@]12CC[C@H]3[C@@H](CCC4=CC(=O)CC[C@@H]43)[C@@H]1C[C@H]1O[C@@H](c3ccc(Br)o3)O[C@]12C(=O)CF
5 | 53 | 55 | C[C@]12CC[C@H]3[C@@H](CCC4=CC(=O)CC[C@@H]43)[C@@H]1C[C@H]1O[C@@H](c3ccco3)O[C@]12C(=O)CO
6 | 0.95 |  | C[C@]12CC[C@H]3[C@@H](CCC4=CC(=O)CC[C@@H]43)[C@@H]1C[C@H]1O[C@H](c3ccc(I)s3)O[C@]12C(=O)CO
7 | 4.7 |  | C[C@]12CC[C@H]3[C@@H](CCC4=CC(=O)CC[C@@H]43)[C@@H]1C[C@H]1O[C@H](c3ccc(Br)cc3)O[C@]12C(=O)CF
8 | 23 |  | C[C@]12CC[C@H]3[C@@H](CCC4=CC(=O)CC[C@@H]43)[C@@H]1C[C@H]1O[C@@H](c3ccc(Br)cc3)O[C@]12C(=O)CO
9 | 1.4 |  | CC(=O)CC(=O)[C@@]12O[C@@H](c3ccc(Br)o3)O[C@@H]1C[C@H]1[C@@H]3CCC4=CC(=O)CC[C@@H]4[C@H]3CC[C@@]12C
10 | 7.1 |  | CC(=O)CC(=O)[C@@]12O[C@H](c3ccc(Br)o3)O[C@@H]1C[C@H]1[C@@H]3CCC4=CC(=O)CC[C@@H]4[C@H]3CC[C@@]12C
11 | 40 |  | C[C@]12CC[C@H]3[C@@H](CCC4=CC(=O)CC[C@@H]43)[C@@H]1C[C@H]1O[C@@H](c3ccc(I)o3)O[C@]12C(=O)CF
12 | 2.4 | 2.5 | C[C@]12CC[C@H]3[C@@H](CCC4=CC(=O)CC[C@@H]43)[C@@H]1C[C@H]1O[C@H](c3ccco3)O[C@]12C(=O)CO
13 | 34 |  | C[C@]12CC[C@H]3[C@@H](CCC4=CC(=O)CC[C@@H]43)[C@@H]1C[C@H]1O[C@H](c3ccc(I)cc3)O[C@]12C(=O)CF
14 | 2.6 |  | C[C@]12CC[C@H]3[C@@H](CCC4=CC(=O)CC[C@@H]43)[C@@H]1C[C@H]1O[C@H](c3ccc(I)o3)O[C@]12C(=O)CO
15 | 0.41 |  | C[C@]12CC[C@H]3[C@@H](CCC4=CC(=O)CC[C@@H]43)[C@@H]1C[C@H]1O[C@H](c3ccc(Br)cc3)O[C@]12C(=O)CO
16 | 0.81 |  | C[C@]12CC[C@H]3[C@@H](CCC4=CC(=O)CC[C@@H]43)[C@@H]1C[C@H]1O[C@@H](c3ccc(I)cc3)O[C@]12C(=O)CO
17 | 3.9 |  | C[C@]12CC[C@H]3[C@@H](CCC4=CC(=O)CC[C@@H]43)[C@@H]1C[C@H]1O[C@@H](c3ccc(Br)cc3)O[C@]12C(=O)CF
18 | 4.4 |  | C[C@]12CC[C@H]3[C@@H](CCC4=CC(=O)CC[C@@H]43)[C@@H]1C[C@H]1O[C@H](c3ccc(Br)o3)O[C@]12C(=O)CF
19 | 1.8 |  | C[C@]12CC[C@H]3[C@@H](CCC4=CC(=O)CC[C@@H]43)[C@@H]1C[C@H]1O[C@H](c3ccc(I)cc3)O[C@]12C(=O)CO
20 | 6.4 |  | C[C@]12CC[C@H]3[C@@H](CCC4=CC(=O)CC[C@@H]43)[C@@H]1C[C@H]1O[C@@H](c3ccc(I)cc3)O[C@]12C(=O)CF
21 | 3.2 |  | C[C@]12CC[C@H]3[C@@H](CCC4=CC(=O)CC[C@@H]43)[C@@H]1C[C@H]1O[C@@H](c3ccc(I)s3)O[C@]12C(=O)CO
22 | 5 | 11 | C[C@]12CC[C@H]3[C@@H](CCC4=CC(=O)CC[C@@H]43)[C@@H]1C[C@H]1O[C@H](c3ccco3)O[C@]12C(=O)CF
23 | 2.3 |  | C[C@]12CC[C@H]3[C@@H](CCC4=CC(=O)CC[C@@H]43)[C@@H]1C[C@H]1O[C@H](c3ccc(Br)o3)O[C@]12C(=O)CO
24 | 1.7 |  | C[C@]12CC[C@H]3[C@@H](CCC4=CC(=O)CC[C@@H]43)[C@@H]1C[C@H]1O[C@H](c3ccc(Br)s3)O[C@]12C(=O)CO
25 | 5.2 |  | C[C@]12CC[C@H]3[C@@H](CCC4=CC(=O)CC[C@@H]43)[C@@H]1C[C@H]1O[C@@H](c3ccc(Br)s3)O[C@]12C(=O)CO
26 | 180 | 190 | C[C@]12CC[C@H]3[C@@H](CCC4=CC(=O)CC[C@@H]43)[C@@H]1C[C@H]1O[C@@H](c3ccco3)O[C@]12C(=O)CF
